The term IC50 denotes the concentration that gives 50% inhibition. Usually MIC stands for the lowest concentration that inhibits growth of the organism.

Results on four compounds are retold here after patent US9034887B2, “Dihydroorotate dehydrogenase as antifungal drug target and quinazolinone-based inhibitors thereof” (F2G Limited, priority 2008, dated 2015).

In experiment [1] the target is T1, Recombinant DHODH from human (Homo sapiens, UniProt Q02127).
T1 construct: His-tag; NusA (Nus-tag) fusion of vector pET43.1 (own knowledge of the vector) (N); made in house; host or cells: E. coli BL21 DE3
The experiment in a line: DHODH inhibition screen (DCIP reduction, 600 nm), human enzyme. It counts as biochemical. As to conditions: Table 3, read-out: IC50 values for Compound Examples 1 to 15 identified from screens, Human. The procedure: (§1) 1. The following buffer and stock solution were prepared:
Coenzyme Q2 (Sigma) was dissolved in DMSO to give a concentration of 10 mg/ml. […] The stock solution was made with 127.36 μl DHO, 127.36 μl DCIP and 318.4 μl Coenzyme Q2, made up to 80 ml with Buffer A. Final concentrations in assay wells were; DHO, 500 μM; Coenzyme Q, 50 μM; DCIP, 100 μM.
2. […] Duplicate sets of plates were used such that one set received enzyme while a control set received no enzyme.
3. […] Then 20 μl of DHODH solution was added to all the +enzyme plates and 20 μl of Buffer A was added to all the control −enzyme plates.
(§2) 4. 20 μl of DHO/Coenzyme Q2/DCIP solution was added to all the wells, after which plates were incubated at room temperature for […] and then read on a Tecan Safire spectrophotometer at 600 nm.
Recombinant DHODH from human or C. albicans was assayed in the same way. It is necessary to adjust the enzyme concentration and reaction time to take into account variations in activity of enzyme batches, thus the incubation time was 20 minutes for the C. albicans enzyme and 34 minutes for the human enzyme.

The subject of experiment [2] is Aspergillus fumigatus AF210. Put plainly: MIC in RPMI medium, A. fumigatus 210. The class given is cell-based. The conditions noted are these: 24-48 hrs at 35° C., >80% growth inhibition, read-out: MIC grade, A. fumigatus 210. As to the method: (§3) Between 1 and 5 mgs of compound were accurately weighed out into a sterile Eppendorf tube. The compound was dissolved in DMSO to give a solution containing 5 mg/mL. Tubes were stored at −20° C. until required.
(§4) On the day of testing thawed solutions were vortex mixed to ensure homogeneity. 30 μL of solution was removed and added to 570 μL of sterile water in a separate sterile Eppendorf. The thoroughly mixed solution was used to prepare a series of doubling dilutions in water, in a deep well plate. Thirteen replicate plates were prepared using a Minitrak by aspirating 20 μL from each well into eleven clear polystyrene 96 well plates.
(§5) Assays were also performed in RPMI medium. To perform MIC tests in this medium, dilutions of compounds are prepared in microtitre plates as described above. Fungal strains to be tested are grown and harvested in an identical manner to that described above, and each organism suspension was diluted in RPMI medium, containing 2% glucose and 0.135 M MOPS buffer (pH 7.0) to 0.5-2×10^4 cfu/mL, rather than in YAG medium. 80 μL of an organism suspension was added to each well of the plate containing drug dilutions.
(§6) All plates were incubated for 24-48 hrs at 35° C. Growth was assessed by monitoring the optical density at 485 nm for each well. […] The following organisms were tested: Aspergillus flavus, Aspergillus fumigatus AF293 and AF210, Aspergillus niger and Aspergillus terreus AT4 and AT49.

Experiment [3] deals with Aspergillus niger. Put plainly: MIC in RPMI medium, A. niger. It counts as cell-based. As to conditions: 24-48 hrs at 35° C., >80% growth inhibition, read-out: MIC grade, A. niger. The procedure:
as §3, §4, §5, §6

The subject of another experiment is A. fumigatus 210. Put plainly: MIC in YAG medium, A. fumigatus 210. The class given is cell-based. The conditions noted are these: Aspergillus fumigatus, 24 hrs at 35° C., >70% growth inhibition, read-out: MIC grade, A. fumigatus 210. As to the method:
as §3, §4
(§7) Spores of Aspergillus spp. (Aspergillus fumigatus [two strains], Aspergillus terreus [two strains], Aspergillus niger and Aspergillus flavus) were harvested from cultures grown on Sabarauds agar for 5 days, and resuspended in PBS/Tween 80 to approx 1×10^7 cfu/mL. Each organism suspension was diluted in YAG medium (1% glucose, 1% ammonium chloride and 0.5% yeast extract) to 0.5-2×10^4 cfu/mL. 80 μL of an organism suspension was added to each well of the plate containing drug dilutions.
(§8) All plates were incubated for 24 hrs at 35° C. Growth was assessed by monitoring the optical density at 485 nm for each well. The MIC of a compound is the lowest drug concentration that inhibits growth of an organism by >70% compared with a drug free control. MICs are recorded as mg/L. In cases where the MIC of an organism is […] the MIC is repeated using a concentration range of 0.5-0.0005 mg/L.

Another experiment relates to Aspergillus fumigatus. Put plainly: MIC in YAG medium, A. fumigatus. The class given is cell-based. The conditions noted are these: 24 hrs at 35° C., >70% growth inhibition, read-out: MIC grade, A. fumigatus. The procedure:
as §3, §4, §7, §8

Experiment [4] concerns the target Recombinant A. fumigatus DHODH (Aspergillus fumigatus, UniProt Q4X169). Put plainly: DHODH inhibition screen (DCIP reduction, 600 nm), A. fumigatus enzyme. It counts as biochemical. The procedure: as §1
Buffer A: 62.5 mM TrisHCl (pH8.0), 150 mM NaCl, 10% v/v glycerol
DHO/Coenzyme Q2/DCIP solution: 19.848 mg dihydroorotate (DHO; Sigma) was dissolved in 160 μl DMSO. Coenzyme Q2 (Sigma) was dissolved in DMSO to give a concentration of 10 mg/ml. 7.236 mg 2,6-dichloroindophenol (DCIP; Sigma) was dissolved in 160 μl DMSO. The stock solution was made with 127.36 μl DHO, 127.36 μl DCIP and 318.4 μl Coenzyme Q2, made up to 80 ml with Buffer A. Final concentrations in assay wells were; DHO, 500 μM; Coenzyme Q, 50 μM; DCIP, 100 μM.
2. Compounds were aliquotted into 384-well microtitre plates at a range of dilutions to give final concentrations in the assay of […]. Duplicate sets of plates were used such that one set received enzyme while a control set received no enzyme. Since compounds are frequently dissolved in DMSO or a DMSO/water mixture, assays were set up to give a final concentration of 1% (v/v) DMSO in wells.
3. Recombinant A. fumigatus DHODH was suspended in Buffer A to give a concentration of 1435.8 ng protein in 20 μl. Then 20 μl of DHODH solution was added to all the +enzyme plates and 20 μl of Buffer A was added to all the control −enzyme plates.
as §2
Recombinant DHODH from human or C. albicans was assayed in the same way. It is necessary to adjust the enzyme concentration and reaction time to take into account variations in activity of enzyme batches, thus the incubation time was 20 minutes for the C. albicans enzyme and 34 minutes for the human enzyme. Compounds are screened against a fungal and human enzyme to identify compounds which are selective for the fungal enzyme.

The next experiment has as its system A. terreus 49. Put plainly: MIC in YAG medium, A. terreus 49. It counts as cell-based. The conditions noted are these: Aspergillus terreus, 24 hrs at 35° C., >70% growth inhibition, read-out: MIC grade, A. terreus 49. The procedure: as §3, §4, §7, §8
The test system of a further experiment is Aspergillus terreus. Put plainly: MIC in YAG medium, A. terreus. It counts as cell-based. The conditions noted are these: 24 hrs at 35° C., >70% growth inhibition, read-out: MIC grade, A. terreus. As to the method: as §3, §4, §7, §8
The test system of experiment [5] is Aspergillus flavus. The experiment in a line: MIC in YAG medium, A. flavus. It counts as cell-based. The conditions noted are these: 24 hrs at 35° C., >70% growth inhibition, read-out: MIC grade, A. flavus. The procedure: as §3, §4, §7, §8
For another experiment, the system named is Aspergillus terreus AT49. Put plainly: MIC in RPMI medium, A. terreus 49. The conditions noted are these: 24-48 hrs at 35° C., >80% growth inhibition, read-out: MIC grade, A. terreus 49. It counts as cell-based. The procedure: as §3, §4, §5, §6
The test system of experiment [6] is Aspergillus niger. The experiment in a line: MIC in YAG medium, A. niger. It counts as cell-based. As to conditions: 24 hrs at 35° C., >70% growth inhibition, read-out: MIC grade, A. niger. The procedure:
as §3, §4, §7, §8

A further experiment deals with Aspergillus terreus AT4. The experiment in a line: MIC in RPMI medium, A. terreus. The conditions noted are these: 24-48 hrs at 35° C., >80% growth inhibition, read-out: MIC grade, A. terreus. The class given is cell-based. The procedure: as §3, §4, §5, §6
Experiment [7] has as its system Aspergillus flavus. The experiment in a line: MIC in RPMI medium, A. flavus. It counts as cell-based. The conditions noted are these: 24-48 hrs at 35° C., >80% growth inhibition, read-out: MIC grade, A. flavus. As to the method: as §3, §4, §5, §6
The test system of experiment [8] is Aspergillus fumigatus AF293. Put plainly: MIC in RPMI medium, A. fumigatus. The conditions noted are these: 24-48 hrs at 35° C., >80% growth inhibition, read-out: MIC grade, A. fumigatus. It counts as cell-based. As to the method: as §3, §4, §5, §6

≈ marks a conversion by molar mass, not a printed value.

Sequence of Recombinant A. fumigatus DHODH (Q4X169 entry or part of it): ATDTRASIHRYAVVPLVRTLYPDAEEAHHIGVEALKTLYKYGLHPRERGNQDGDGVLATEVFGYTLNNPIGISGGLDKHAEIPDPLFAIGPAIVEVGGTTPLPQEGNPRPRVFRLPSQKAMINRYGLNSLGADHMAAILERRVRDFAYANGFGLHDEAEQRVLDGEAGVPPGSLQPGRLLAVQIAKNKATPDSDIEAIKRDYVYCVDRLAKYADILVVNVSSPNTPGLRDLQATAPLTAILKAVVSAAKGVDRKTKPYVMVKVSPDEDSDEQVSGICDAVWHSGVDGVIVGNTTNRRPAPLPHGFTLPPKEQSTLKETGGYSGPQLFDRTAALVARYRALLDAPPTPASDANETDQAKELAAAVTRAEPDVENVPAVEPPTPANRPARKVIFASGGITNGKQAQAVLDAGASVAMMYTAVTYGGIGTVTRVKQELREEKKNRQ
T1 sequence (Q02127 31-395 limits assumed): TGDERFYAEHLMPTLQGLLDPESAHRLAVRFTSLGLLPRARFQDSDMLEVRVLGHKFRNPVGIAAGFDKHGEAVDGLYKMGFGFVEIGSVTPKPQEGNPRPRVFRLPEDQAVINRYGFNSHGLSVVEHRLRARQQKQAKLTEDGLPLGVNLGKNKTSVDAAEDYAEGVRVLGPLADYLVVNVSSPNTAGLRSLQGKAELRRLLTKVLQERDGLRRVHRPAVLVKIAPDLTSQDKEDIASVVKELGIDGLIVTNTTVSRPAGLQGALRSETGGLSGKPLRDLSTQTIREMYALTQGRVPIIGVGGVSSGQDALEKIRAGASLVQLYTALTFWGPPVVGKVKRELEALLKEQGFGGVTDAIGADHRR

For `CCSc1nc2cccc(C)c2c(=O)n1-c1ccccc1OC` [Compound Example 14, 2-Ethylsulfanyl-3-(2-methoxy-phenyl)-5-methyl-3H-quinazolin-4-one], the values for the IC50 in [1] and in experiment [4] were 32.1 µM and 43.7 µM, respectively. Also, the MIC in experiment [2] is 1 to 10 µg/mL (≈ 3.06 to 30.6 µM); with Aspergillus niger [3] it was less than 1 µg/mL; in the experiment on A. fumigatus 210 it was less than 1 µg/mL; in the experiment on Aspergillus fumigatus it was less than 1 µg/mL; with A. terreus 49 it was less than 1 µg/mL; with Aspergillus terreus, less than 1 µg/mL. The MIC was 1 to 10 µg/mL (≈ 3.06 to 30.6 µM) with Aspergillus flavus [5]; 1 to 10 µg/mL (≈ 3.06 to 30.6 µM) in the experiment on Aspergillus terreus AT49; less than 1 µg/mL in the experiment with Aspergillus niger [6]; greater than 10 µg/mL with Aspergillus terreus AT4; greater than 10 µg/mL with Aspergillus flavus [7]; 1 to 10 µg/mL (≈ 3.06 to 30.6 µM) in [8].
Regarding `COc1ccccc1-n1c(SC(C)C)nc2cc(C)ccc2c1=O` [Compound Example 1, 2-Isopropylsulfanyl-3-(2-methoxy-phenyl)-7-methyl-3H-quinazolin-4-one], the MIC in [2] was 1 to 10 µg/mL (≈ 2.94 to 29.4 µM); in the experiment with Aspergillus niger [3], greater than 10 µg/mL; in the experiment on A. fumigatus 210, less than 1 µg/mL; in the experiment with Aspergillus fumigatus, less than 1 µg/mL; in the experiment with A. terreus 49, less than 1 µg/mL; in the experiment with Aspergillus terreus, less than 1 µg/mL. Also, the MIC is less than 1 µg/mL with Aspergillus flavus [5]; less than 1 µg/mL in the experiment with Aspergillus terreus AT49; less than 1 µg/mL in the experiment with Aspergillus niger [6]; less than 1 µg/mL in the experiment on Aspergillus terreus AT4; greater than 10 µg/mL in the experiment with Aspergillus flavus [7]; 1 to 10 µg/mL (≈ 2.94 to 29.4 µM) in experiment [8].
`COc1ccccc1-n1c(SC(C)C)nc2cccc(C)c2c1=O` [Compound Example 3, 2-Isopropylsulfanyl-3-(2-methoxy-phenyl)-5-methyl-3H-quinazolin-4-one]: the MIC in experiment [2] is 1 to 10 µg/mL (≈ 2.94 to 29.4 µM); in the experiment with Aspergillus niger [3], less than 1 µg/mL; in the experiment on A. fumigatus 210 it was less than 1 µg/mL; in the experiment with Aspergillus fumigatus it was less than 1 µg/mL; in the experiment with A. terreus 49 it was less than 1 µg/mL; in the experiment on Aspergillus terreus it was less than 1 µg/mL. In addition, the MIC in the experiment on Aspergillus flavus [5] was greater than 10 µg/mL; in the experiment with Aspergillus terreus AT49 it was 1 to 10 µg/mL (≈ 2.94 to 29.4 µM); in the experiment with Aspergillus niger [6], less than 1 µg/mL; with Aspergillus terreus AT4, greater than 10 µg/mL; with Aspergillus flavus [7], greater than 10 µg/mL; in [8] it was 1 to 10 µg/mL (≈ 2.94 to 29.4 µM).
For the compound `COc1ccccc1-n1c(SC(C)C)nc2ccc(C)cc2c1=O` [Compound Example 2, 2-Isopropylsulfanyl-3-(2-methoxy-phenyl)-6-methyl-3H-quinazolin-4-one], the minimal inhibitory concentration (MIC) in [2] is 1 to 10 µg/mL (≈ 2.94 to 29.4 µM); in the experiment on Aspergillus niger [3] it was less than 1 µg/mL; in the experiment with A. fumigatus 210, less than 1 µg/mL; with Aspergillus fumigatus it was less than 1 µg/mL; with A. terreus 49, less than 1 µg/mL; in the experiment on Aspergillus terreus, less than 1 µg/mL. Moreover, the MIC in the experiment on Aspergillus flavus [5] is greater than 10 µg/mL; with Aspergillus terreus AT49, 1 to 10 µg/mL (≈ 2.94 to 29.4 µM); in the experiment with Aspergillus niger [6], less than 1 µg/mL; in the experiment with Aspergillus terreus AT4, greater than 10 µg/mL; in the experiment with Aspergillus flavus [7], greater than 10 µg/mL; in [8], 1 to 10 µg/mL (≈ 2.94 to 29.4 µM).
